Results reported in ChEMBL document CHEMBL6092149, “Discovery of 1(2H)-phthalazinone and 1(2H)-isoquinolinone derivatives as potent hematopoietic progenitor kinase 1 (HPK1) inhibitors” (Eur J Med Chem, 2024).
pEC50, pIC50: −log10 of the molar value. The source made the active and inactive calls. No cut-off for these calls is given here.

Experiments:
[1] = target: T1, Mitogen-activated protein kinase kinase kinase kinase 1 (Homo sapiens, UniProt Q92918); test: Inhibition of N-terminal DYKDDDDK recombinant human HPK1 (1 to 346 residues) expressed in Sf21 insect cells preincubated for 10 min followed by fluorescein PKC and ATP addition and measured after 90 min by Envision2104 Multilabel Reader analysis
Target sequence in this assay (Q92918 whole entry, the tested form may be a part): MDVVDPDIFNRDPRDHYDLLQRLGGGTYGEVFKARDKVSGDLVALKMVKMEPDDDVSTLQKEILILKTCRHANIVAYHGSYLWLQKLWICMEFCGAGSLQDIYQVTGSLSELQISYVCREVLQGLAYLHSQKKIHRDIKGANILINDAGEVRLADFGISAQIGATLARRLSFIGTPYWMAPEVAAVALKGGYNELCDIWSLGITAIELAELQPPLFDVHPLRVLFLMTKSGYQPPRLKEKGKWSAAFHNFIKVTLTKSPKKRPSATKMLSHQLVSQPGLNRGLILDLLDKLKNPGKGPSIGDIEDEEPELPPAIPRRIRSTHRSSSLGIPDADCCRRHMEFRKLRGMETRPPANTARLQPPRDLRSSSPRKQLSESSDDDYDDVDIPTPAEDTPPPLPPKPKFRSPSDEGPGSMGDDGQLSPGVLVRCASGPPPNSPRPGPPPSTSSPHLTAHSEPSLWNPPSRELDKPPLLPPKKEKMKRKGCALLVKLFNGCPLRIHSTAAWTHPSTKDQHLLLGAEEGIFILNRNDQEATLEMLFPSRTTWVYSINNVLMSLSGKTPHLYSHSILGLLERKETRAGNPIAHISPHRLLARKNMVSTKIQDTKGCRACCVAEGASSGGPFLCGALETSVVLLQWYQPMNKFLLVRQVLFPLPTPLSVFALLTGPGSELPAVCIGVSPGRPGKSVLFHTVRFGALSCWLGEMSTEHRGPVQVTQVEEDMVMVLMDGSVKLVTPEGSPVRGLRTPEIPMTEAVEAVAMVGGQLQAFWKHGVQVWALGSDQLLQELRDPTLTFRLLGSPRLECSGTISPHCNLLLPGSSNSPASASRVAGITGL

[2] = target: T1, Mitogen-activated protein kinase kinase kinase kinase 1; test: Inhibition of HPK1 in human Jurkat cells assessed as reduction in SLP76 phosphorylation pretreated for 1 hr followed by anti-CD3 addition and measured after 15 min by ELISA method; type: cell-based
Target sequence in this assay (Q92918 whole entry, the tested form may be a part): as above

[3] = target: T1, Mitogen-activated protein kinase kinase kinase kinase 1; test: Inhibition of HPK1 in human T cells assessed as increase in IL-2 secretion measured after 24 hrs by ELISA method; type: cell-based, T-cell; details: for Activity: T-cell
[4] = Half life in overnight fasted mouse at 1 mg/kg, iv; type: ADME, organism-based; details: in vivo
[5] = Plasma clearance in overnight fasted mouse at 1 mg/kg, iv; type: ADME, organism-based
[6] = AUC (0 to 24 hrs) in overnight fasted mouse at 10 mg/kg, po; type: ADME, organism-based; details: in vivo
[7] = Oral bioavailability in in overnight fasted mouse at 10 mg/kg; type: ADME, organism-based; details: in vivo
[8] = Cmax in overnight fasted mouse at 10 mg/kg, po; type: ADME, organism-based; details: in vivo
[9] = Half life in overnight fasted rat at 1 mg/kg, iv; type: ADME, organism-based; details: in vivo
[10] = Plasma Clearance in overnight fasted rat at 1 mg/kg, iv; type: ADME, organism-based
[11] = Cmax in overnight fasted rat at 10 mg/kg, po; type: ADME, organism-based; details: in vivo
[12] = AUC (0 to 24 hrs) in overnight fasted rat at 10 mg/kg, po; type: ADME, organism-based; details: in vivo
[13] = target: T1, Mitogen-activated protein kinase kinase kinase kinase 1; test: Inhibition of HPK1 in human T cells assessed as increase in IL-2 secretion at 333 nM incubated for 2 hrs and measured after 24 hrs by ELISA method; type: cell-based; details: T-cell
Target sequence in this assay (Q92918 whole entry, looked up, the tested form may be a part): as the sequence (Q92918 whole entry, the tested form may be a part) above

[14] = target: Voltage-gated inwardly rectifying potassium channel KCNH2 (Homo sapiens, UniProt Q12809); test: Inhibition of HERG expressed in HEK293 cells at -80mV holding potential incubated for 24 to 48 hrs by whole-cell patch clamp method
Voltage-gated inwardly rectifying potassium channel KCNH2, sequence (Q12809 whole entry): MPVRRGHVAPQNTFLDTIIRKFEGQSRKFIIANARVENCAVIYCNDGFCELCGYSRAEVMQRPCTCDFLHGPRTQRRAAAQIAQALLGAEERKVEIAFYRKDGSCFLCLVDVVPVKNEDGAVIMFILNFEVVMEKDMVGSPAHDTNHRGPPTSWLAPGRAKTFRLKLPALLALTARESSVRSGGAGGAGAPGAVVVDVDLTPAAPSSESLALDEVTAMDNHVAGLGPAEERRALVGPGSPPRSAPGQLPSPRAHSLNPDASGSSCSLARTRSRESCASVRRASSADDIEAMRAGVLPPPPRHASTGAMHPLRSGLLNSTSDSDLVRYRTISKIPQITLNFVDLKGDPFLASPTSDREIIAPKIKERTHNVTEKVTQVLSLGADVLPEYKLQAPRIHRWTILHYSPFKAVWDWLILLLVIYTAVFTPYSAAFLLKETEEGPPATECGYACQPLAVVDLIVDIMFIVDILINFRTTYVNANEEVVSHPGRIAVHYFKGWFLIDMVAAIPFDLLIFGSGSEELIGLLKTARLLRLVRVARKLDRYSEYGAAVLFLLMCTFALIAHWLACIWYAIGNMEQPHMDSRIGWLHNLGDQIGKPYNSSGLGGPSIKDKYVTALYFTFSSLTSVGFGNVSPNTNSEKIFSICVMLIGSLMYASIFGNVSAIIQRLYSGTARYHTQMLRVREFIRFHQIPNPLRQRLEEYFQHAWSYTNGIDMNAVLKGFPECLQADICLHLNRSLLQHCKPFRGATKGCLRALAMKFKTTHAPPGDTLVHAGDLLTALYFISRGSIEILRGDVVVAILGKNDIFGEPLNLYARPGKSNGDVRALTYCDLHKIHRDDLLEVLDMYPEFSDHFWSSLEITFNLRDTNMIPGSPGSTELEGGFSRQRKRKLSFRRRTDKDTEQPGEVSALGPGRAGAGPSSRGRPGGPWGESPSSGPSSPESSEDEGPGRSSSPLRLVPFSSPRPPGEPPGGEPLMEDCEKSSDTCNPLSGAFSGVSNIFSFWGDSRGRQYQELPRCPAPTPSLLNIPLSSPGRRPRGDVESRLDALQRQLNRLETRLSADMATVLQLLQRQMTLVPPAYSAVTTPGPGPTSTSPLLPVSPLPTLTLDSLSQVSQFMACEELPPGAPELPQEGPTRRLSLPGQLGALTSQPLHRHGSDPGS

Row | SMILES | pIC50 [1] | pEC50 [2] | pEC50 [3] | Activity [3] | half-life [4] [min] | clearance [5] [mL/min/kg] | AUC(0-t) [6] [ng·h/mL] | bioavailability [7] [%] | Cmax [8] [ng/mL] | half-life [9] [min] | clearance [10] [mL/min/kg] | Cmax [11] [ng/mL] | AUC(0-t) [12] [ng·h/mL] | Activity [13] | pIC50 [14]
1 | COC1CCN(Cc2nc(Nc3ccc(-c4cnc5cc(F)ccn45)c4cn[nH]c(=O)c34)ccc2C2CCOCC2)C1 (stereo not drawn) | 7.61 | 7.49 | 6.60 | Dose-dependent-effect | – | – | – | – | – | – | – | – | – | – | –
2 | O=c1[nH]ncc2c(-c3cnc4cc(F)ccn34)ccc(Nc3ccc(C4CCOCC4)c(CN4CC[C@H](F)C4)n3)c12 | 8.27 | 7.85 | 6.73 | Dose-dependent-effect | 30 | 104 | 506 | 31 | 484 | – | – | – | – | – | –
3 | CN(C)Cc1nc(Nc2ccc(-c3cnc4cc(F)ccn34)c3cc[nH]c(=O)c23)ccc1C1CCOCC1 | 7.70 | 7.12 | 6.66 | Dose-dependent-effect | 24 | 159 | 892 | 86 | 308 | – | – | – | – | – | –
4 | O=c1[nH]ncc2c(-c3cnc4cc(F)ccn34)ccc(Nc3ccc(C4CCOCC4)c(CN4CC[C@@H](F)C4)n3)c12 | 7.47 | 7.26 | 6.43 | Dose-dependent-effect | – | – | – | – | – | – | – | – | – | – | –
5 | CN(C)Cc1nc(Nc2ncc(-c3cnc4cc(F)ccn34)c3cn[nH]c(=O)c23)ccc1C1CCOCC1 | 6.27 | – | – | – | – | – | – | – | – | – | – | – | – | – | –
6 | CN(C)Cc1nc(Nc2ccc(-c3cnc4cc(F)ccn34)c3c(F)c[nH]c(=O)c23)ccc1C1CCOCC1 | < 6.00 | – | – | – | – | – | – | – | – | – | – | – | – | – | –
7 | CN(C)Cc1nc(Nc2ccc(-c3cnc4cc(F)ccn34)c3c2C(=O)NC3)ccc1C1CCOCC1 | – | – | – | – | 30 | 269 | 1350 | – | 282 | 84 | 230 | 74 | 312 | Active | 5.55
